Data as given in patent publication US20030171361A1, “Pyrrolopyrimidinone derivatives, process of preparation and use” (priority 2002, published 2003).

Key:
rabbit platelet PDE V = rabbit platelet PDE V (Oryctolagus cuniculus, UniProt G1SX67); test: inhibition of cGMP PDE V activity (PDE SPA assay kit, [3H]-cGMP); format: biochemical; details: in vitro, inhibitors of cGMP PDE V; rabbit platelet enzyme, 30° C., 30 min
Procedure: The rabbit platelet PDE V was prepared using the method described by Hidaka et al.(Biochim. Biophys. Acta., 429: 485-497, 1976) with minor modification. The platelet-rich plasma (PRP) was prepared by centrifugation of freshly obtained heparinized whole blood at 360 g. Platelets were isolated from the PRP by centrifugation at 1,200 g. Platelet homogenates were prepared in the homogenization buffer (50 mM Tris-HCl buffer containing 1 mM MgCl2, pH 7.4) by sonication for 30 s per 1 mL. The homogenized solutions were then centrifuged at 40,000×g for 2 h at 4° C. The supernatant was loaded on the DEAE-cellulose column (20 mL bed volume, Sigma) pre-equilibrated with equilibration buffer (50 mM Tris-acetate containing 3.75 mM 2-mercaptoethanol, pH 6.0).The column was then washed with 60 mL of equilibration buffer. The PDE isozymes were eluted using a continuous gradient of 0 to 600 mM sodium acetate in the equilibration buffer (60 mL total volume). The 1.0 mL fractions were collected. A flow rate of 60 mL/h was used throughout the ion-exchange chromatography procedure. PDE activities on cAMP and cGMP were characterized as described below. The characterized fractions were pooled and stored at −80 ° C. until the inhibition studies
The cyclic nucleotide PDE V activity was determined using PDE SPA assay kit (Amersham Pharmacia biotech, UK).Each reaction mixture (100 μL total volume) consisted of the column elute containing PDE V (10 μL), [^3H]-cGMP (5 μCi/mL), bovine serum albumin (0.5 mg/mL), and MgCl2 (5 mM) in Tris-HCl buffer (15 mM, pH 7.5).The reactions were initiated by the addition of PDE V and the samples were incubated at 30° C. for 30 min, after which the reaction was stopped by the addition of 50 μL of SPA beads. The reaction tube was then settled for 20 min and was counted on the scintillation counter (Tri-carb 1500, Packard, USA). For the inhibition study of PDE V activity, the test compounds were dissolved in dimethyl sulfoxide (DMSO) and was diluted with distilled water. The final concentration of DMSO was less than 0.2% (v/v).All the inhibition experiments were conducted tinder the conditions where the level of cGMP hydrolysis (lid not exceed 15%, and the product formation increased linearly with time and the amount of enzyme.
The following Table illustrates the in vitro activities for a range of the compounds of the invention as inhibitors of cGMP PDE V.

Row | SMILES | IC50 (rabbit platelet PDE V) [nM] | melting point [°C]
1 | CCCOc1ccc(S(=O)(=O)N2CCN(CCCF)CC2)cc1-c1nc2c(CCC)cn(C)c2c(=O)[nH]1 [Example 37, 52-(5-(4-(3-fluoropropyl)piperazinylpiperazin-1-ylsulfonyl)-2-n-propoxyphenyl)-15-methyl-37-n-propyl-1,63,5-dihydro-7H4H-pyrrolo[4,33,2-d]pyrimidin-74-one] | 0.64 | 
2 | CCCc1cn(C)c2c(=O)[nH]c(-c3cc(S(=O)(=O)N4CCN(CCCF)CC4)ccc3OCC)nc12 [Example 14, 52-(2-ethoxy-5-(4-(3-fluoropropyl)piperazinylpiperazin-1-ylsulfonyl)phenyl)-15-methyl-37-n-propyl-1,63,5-dihydro-7H4-pyrrolo[4,33,2-d]pyrimidin-74-one] | 1.36 | 217.5 to 218
3 | CCCc1cn(C)c2c(=O)[nH]c(-c3cc(S(=O)(=O)N4CCC(CCC(=O)O)CC4)ccc3OCC)nc12 [Example 123, 52-(2-ethoxy-5-(4-(2-hydroxycarbonylethyl)piperidinylpiperidin-1-ylsulfonyl)phenyl)-15-methyl-37-n-propyl-1,63,5-dihydro-7H4H-pyrrolo[4,33,2-d]pyrimidin-74-one] | 0.71 | 129 to 130.5
4 | CCCOc1ccc(S(=O)(=O)N2CCC(CCC(=O)O)CC2)cc1-c1nc2c(CCC)cn(C)c2c(=O)[nH]1 [Example 124, 52-(5-(4-(2-hydroxycarbonylethyl)piperidinylpiperidin-1-ylsulfonyl)-2-n-propoxyphenyl)-15-methyl-37-n-propyl-1,63,5-dihydro-7H4H-pyrrolo[4,33,2-d]pyrimidin-74-one] | 0.27 | 
5 | CCCc1cn(C)c2c(=O)[nH]c(-c3cc(S(=O)(=O)N4CCN(CCO)CC4)ccc3OCC)nc12 [Example 51, 52-(2-ethoxy-5-(4-(2-hydroxyethyl)piperazinylpiperazin-1-ylsulfonyl)phenyl)-15-methyl-37-n-propyl-1,63,5-dihydro-7H4H-pyrrolo[4,33,2-d]pyrimidin-74-one] | 2.06 | 

The next lines start with the values.

Row | IC50 (rabbit platelet PDE V) [nM] | melting point [°C] | SMILES
6 | 0.49 |  | CCCOc1ccc(S(=O)(=O)N2CCN(CCO)CC2)cc1-c1nc2c(CCC)cn(C)c2c(=O)[nH]1 [Example 53, 52-(5-(4-(2-hydroxyethyl)piperazinylpiperazin-1-ylsulfonyl)-2-n-propoxyphenyl)-15-methyl-37-n-propyl-1,63,5-dihydro-7H4H-pyrrolo[4,33,2-d]pyrimidin-74-one]
7 | 2.9 | 220.5 to 221 | CCCc1cn(C)c2c(=O)[nH]c(-c3cc(S(=O)(=O)N4CCN(C)CC4)ccc3OCC)nc12 [Example 1, 52-(2-ethoxy-5-(4-methylpiperazinylpiperazin-1-ylsulfonyl)phenyl)-15-methyl-37-n-propyl-1,63,5-dihydro-7H4H-pyrrolo[4,33,2-d]pyrimidin-74-one]
8 | 0.62 | 194 to 194.5 | CCOc1ccc(S(=O)(=O)N2CCN(CCCF)CC2)cc1-c1nc2c(CCCF)cn(CC)c2c(=O)[nH]1 [Example 26, 52-(2-ethoxy-5-(4-(3-fluoropropyl)piperazinylpiperazin-1-ylsulfonyl)phenyl)-15-ethyl-37(3-fluoropropyl)-1,63,5-dihydro-7H4H-pyrrolo-[4,33,2-d]pyrimidin-74-one]
9 | 0.59 | 183 to 183.5 | CCCOc1ccc(S(=O)(=O)N2CCN(C)CC2)cc1-c1nc2c(CCC)cn(C)c2c(=O)[nH]1 [Example 3, 52-(5-(4-methylpiperazinylpiperazin-1-ylsulfonyl)-2-n-propoxyphenyl)-15-methyl-37-n-propyl-1,63,5-dihydro-7H4H-pyrrolo[4,33,2-d]pyrimidin-74-one]
10 | 0.18 | 162 to 163 | CCCOc1ccc(S(=O)(=O)N2CCN(CCO)CC2)cc1-c1nc2c(CCCF)cn(CC)c2c(=O)[nH]1 [Example 30]
11 | 0.33 |  | CCCOc1ccc(S(=O)(=O)N2CCN(CCO)CC2)cc1-c1nc2c(CCC)cn(CC)c2c(=O)[nH]1 [Example 31]
12 | 2.23 | 182 to 182.5 | CCOc1ccc(S(=O)(=O)N2CCN(CCCF)CC2)cc1-c1nc2c(CC)cn(CC)c2c(=O)[nH]1 [Example 18, 52-(2-ethoxy-5-(4-(3-fluoropropyl)piperazinylpiperazin-1-ylsulfonyl)phenyl)-15-ethyl-37-ethyl-1,63,5-dihydro-7H4H-pyrrolo[4,33,2-d]pyrimidin-74-one]
